Experimental findings from US6849409B2, “Cellular kinases involved in Cytomegalovirus infection and their inhibition” (Axxima Pharmaceuticals AG, priority 2000, dated 2005) are described below.

The structures appear in SMILES notation.

For one assay, the system named is HCMV. Nature of the assay: HCMV inhibition (virus replication assay, plaque assay, GFP infection assay or indirect immunofluorescence analysis). The conditions noted are these: Human betaherpesvirus 5, read-out: IC50 HCMV. It is filed as cell-based. The procedure: (§1) To perform initial tests for compounds that inhibit RICK activity in a cellular assay, RICK was transiently overexpressed in HEK-293 cells, immunoprecipitated and incubated with different concentrations of test compounds before in-vitro kinase assays were performed (Example 10). According to the method for identifying compounds useful for inhibiting the cellular kinase RICK and therefore useful for treating and/or preventing Cytomegalovirus infection and/or diseases associated with Cytomegalovirus infection, a test compound is contacted with the cellular kinase RICK according to the RICK assay protocol disclosed in example 10. The test compound dissolved in DMSO is added to the RICK assay solution at concentrations between 100 nM and 50 μM. Thereafter, radioactively labeled ATP is added and kinase activity of RICK is determined by detecting the autophosphorylation of RICK via radioactivity measurement. The five compounds listed in the following Table 1 were identified using said method. […] The IC50 values of HCMV inhibition were obtained by the use of at least one assay protocol selected from a) virus replication assay, b) plaque assay, c) GFP (Green Fluorescent Protein) infection assay, and d) indirect immunofluorescence analysis as disclosed in example 12. Thus, the five compounds A to E mentioned below and/or pharmaceutically acceptable salts thereof can be used as inhibitors of the cellular protein kinase RICK and as pharmaceutically active compounds for the treatment and/or prophylaxis of HCMV infection. Furthermore, these compounds are suitable for the manufacture of a pharmaceutical composition for prophylaxis and/or treatment of Cytomegalovirus infection and/or diseases associated therewith.
(§2) To perform initial tests for compounds that inhibit RIP activity in a cellular assay, RIP was transiently overexpressed in HEK-293 cells, immunoprecipitated and incubated with different concentrations of test compounds before in-vitro kinase assays were performed (Example 11). In order to identify compounds suitable for inhibiting the cellular kinase RIP and, thus, suitable for treating and/or preventing Cytomegalovirus infection and/or diseases associated with Cytomegalovirus infection the inventive method according to claim 1 was used. A test compound was contacted with the cellular kinase RIP according to the RIP assay protocoll disclosed in example 11. The test compound dissolved in DMSO is added to the RIP assay solution at concentrations between 100 nM and 50 μM. Radioactively labeled ATP was used as co-substrate of RIP and auto-phosphorylation was detected via measurement of incorporation of radioactivity into the RIP protein. Thereafter, phosphorylation rates with and without test compounds were compared. […] The IC50 values of HCMV inhibition were obtained by the use of at least one assay protocol selected from a) virus replication assay, b) plaque assay, c) GFP infection assay, and d) indirect immunofluorescence analysis as disclosed in example 12.
Primary human foreskin fibroblasts (HFF) were cultivated in MEM containing 5% (v/v) fetal calf serum. Infection analysis was restricted to cell passage numbers below twenty. Human cytomegalovirus strain AD169 (ATCC) was grown in HFF cells and quantitated for infectivity by the plaque reduction assay. Aliquots were stored at −80° C.
HFF cells were cultivated in 12-well plates to 90-100% confluency and used for infection with dilutions of virus-positive cell culture supernatants. Virus inoculation was performed for 90 min at 37° C. under occasional shaking before virus was removed and the cell layers were rinsed with PBS. Overlays of MEM 5% (v/v) fetal calf serum and 0.3% (w/v) agarose were added to each well and all samples were incubated at 37° C. in a 5% CO2 atmosphere for approximately 12 days. Finally, overlays were removed and the formation of foci was visualized by staining with 1% crystal violet in 20% ethanol for 1 min. […]

Another assay concerns the target T1, RICK (Homo sapiens, UniProt O43353).
T1 construct: made in house; host or cells: HEK 293 (transient transfection, pcDNA3), immunoprecipitated with anti-HA antibody
Nature of the assay: RICK-kinase assay (autophosphorylation of immunoprecipitated RICK-HA, radioactively labeled ATP). It is filed as biochemical. The note with it: in-vitro kinase assay, compound 100 nM to 50 μM, 30 min at 30° C. The procedure: as §1
To obtain active RICK kinase the human RICK-cDNA was fused with a DNA sequence coding for the HA-tag and cloned into the eucaryotic expression vector pcDNA3 (Invitrogene). This construct was transfected into human embryonic kidney cells (HEK 293) via the calcium-phosphate co-precipitation method. One day after transfection medium was replaced by fetal calf serurum-free medium and two days after transfection cells were washed with PBS and harvested and lysed in RIPA-buffer (150 mM NaCl, 1 mM EDTA, 1% Tritron X-100, 1% Na-desoxycholate, 0.1% SDS, 10 mM Tris-HCl pH 7.5). The RICK-HA fusion protein was immunoprecipitated from 250 μl cleared lysate (i.e. lysate of one well of a six-well plate) utilizing an anti-HA antibody from Roche Pharmaceuticals and Protein A sepharose. After addition of 500 μl of HNTG-buffer (50 mM HEPES pH 7.5, 150 mM NaCl, 1 mM EDTA, 10% glycerine, 0.1% Triton X-100) the sample was rotated for 3 hrs at 4° C. After washing the immunoprecipitate twice with 0.5 ml HNTG-buffer and twice with 0.5 ml assay-buffer (25 mM Tris-HCl pH 7.5, 3 mM MgCl2, 0.5 mM MnCl2, 0.5 mM DTT and 50 mM NaCl), the kinase reaction was performed directly on the beads in 40 μl assay buffer containing 2.5 μCi γ[^33P]-ATP and various concentrations (between 100 nM and 50 μM) of compounds of Table 1. After 30 min at 30° C., the reaction was stopped by addition of 40 μl 3×Laemmli-buffer (16% glycerol, 1.01M β-mercaptoethanol, 5% SDS, 200 mM Tris/HCl pH 6.8, 8% bromphenolblue). Phosphorylation products were analyzed by SDS-PAGE and auroradiography (x-ray film and phosphor imager).

A further assay deals with T2, RIP (Homo sapiens, UniProt Q13546).
T2 construct: made in house; host or cells: HEK 293 (transient transfection, pcDNA3), immunoprecipitated with anti-HA antibody
T2 sequence (Q13546 1-671 A438V): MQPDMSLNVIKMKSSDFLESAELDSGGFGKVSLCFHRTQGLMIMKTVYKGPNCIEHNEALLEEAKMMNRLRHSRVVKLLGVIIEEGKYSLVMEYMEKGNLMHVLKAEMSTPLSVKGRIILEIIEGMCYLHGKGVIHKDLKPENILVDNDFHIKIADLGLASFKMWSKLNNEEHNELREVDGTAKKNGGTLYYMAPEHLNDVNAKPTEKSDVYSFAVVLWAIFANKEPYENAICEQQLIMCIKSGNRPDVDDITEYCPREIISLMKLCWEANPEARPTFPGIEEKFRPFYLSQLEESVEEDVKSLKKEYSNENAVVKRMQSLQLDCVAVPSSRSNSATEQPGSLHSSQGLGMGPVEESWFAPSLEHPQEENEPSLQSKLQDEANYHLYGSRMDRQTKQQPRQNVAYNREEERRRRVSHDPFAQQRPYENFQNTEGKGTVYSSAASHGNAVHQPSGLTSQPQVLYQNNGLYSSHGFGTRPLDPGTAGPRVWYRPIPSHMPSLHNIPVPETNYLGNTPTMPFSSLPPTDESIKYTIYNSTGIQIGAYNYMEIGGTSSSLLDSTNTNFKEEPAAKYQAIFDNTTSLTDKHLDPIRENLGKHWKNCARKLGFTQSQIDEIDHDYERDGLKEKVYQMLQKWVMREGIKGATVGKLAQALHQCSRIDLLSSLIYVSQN
Nature of the assay: RIP-kinase assay (autophosphorylation of immunoprecipitated RIP-HA, radioactively labeled ATP). The note with it: in-vitro kinase assay, compound 100 nM to 50 μM, 30 min at 30° C. It is filed as biochemical. On the procedure:
as §2
To obtain active RIP kinase the human RIP-cDNA was fused with a DNA sequence coding for the HA-tag and cloned into the eucaryotic expression vector pcDNA3 (Invitrogene). This construct was transfected into human embryonic kidney cells (HEK 293) via the calcium-phosphate DNA co-precipitation method. Two days after transfection cells were washed with PBS and harvested and lysed in lysis-buffer (150 mM NaCl, 1 mM EDTA, 1% Tritron X-100, 20 mM Tris-HCl pH 7.5 and freshly added: 30 mM NaF, 10 μg/ml Aprotinine, 10 μg/ml Leupeptine, 2 mM Na-pyrophosphate). […] Phosphorylation products were analyzed by SDS-PAGE and autoradiography (x-ray film and phosphor imager).

T1 sequence (O43353 whole entry): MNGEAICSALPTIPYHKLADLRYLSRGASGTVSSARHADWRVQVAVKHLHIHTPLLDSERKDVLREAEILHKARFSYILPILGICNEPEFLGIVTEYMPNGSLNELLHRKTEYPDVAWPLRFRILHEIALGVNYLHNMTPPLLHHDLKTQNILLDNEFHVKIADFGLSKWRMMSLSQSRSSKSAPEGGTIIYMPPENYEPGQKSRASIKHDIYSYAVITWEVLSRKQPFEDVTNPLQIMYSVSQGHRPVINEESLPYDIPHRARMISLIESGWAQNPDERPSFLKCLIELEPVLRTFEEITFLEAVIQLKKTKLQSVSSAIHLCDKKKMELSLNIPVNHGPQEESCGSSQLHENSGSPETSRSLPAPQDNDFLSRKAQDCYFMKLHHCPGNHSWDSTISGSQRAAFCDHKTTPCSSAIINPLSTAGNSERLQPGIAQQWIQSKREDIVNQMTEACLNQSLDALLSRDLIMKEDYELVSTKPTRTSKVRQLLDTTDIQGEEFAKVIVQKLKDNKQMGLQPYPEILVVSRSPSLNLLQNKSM

Regarding `Cn1c(=O)c(-c2c(Cl)cccc2Cl)cc2cnc(NCCCN3CCOCC3)nc21` [Compound A, 6-(2,6-Dichlorophenyl)-8-methyl-2-(3-morpholin-4-yl-propylamino)-8H-pyrido[2,3-d]pyrimidin-7-one], the IC50 with HCMV worked out at 6.8 µM; at RICK, 1 µM.

`Cn1c(=O)c(-c2ccccc2)cc2cnc(Nc3ccncc3)nc21` [Compound B, 8-methyl-6-phenyl-2-(pyridin-4-yl-amino)-8H-pyrido[2,3-d]pyrimidin-7-one]: the IC50 is 1.4 µM with HCMV and 0.5 µM at RICK.

Consider `CN1CCN(CCCNc2ncc3cc(-c4c(Cl)cccc4Cl)c(=O)n(C)c3n2)CC1` [Compound C, 6-(2,6-Dichlorophenyl)-8-methyl-2-[3-(4-methylpiperazin-1-yl)-propylamino]-8H-pyrido[2,3-d]pyrimidin-7-one], for which the IC50 came out at 6.2 µM with HCMV and 1 µM on RICK.

For the compound `CCOc1cc2ncnc(Nc3cccc(Br)c3)c2cc1OCC` [Compound D, (3-Bromophenyl)-(6,7-diethoxyquinazolin-4-yl)-amine], the IC50 came to 7.6 µM with HCMV and 0.5 µM at RICK.

In the case of `COc1cc2ncnc(Nc3cccc(Br)c3)c2cc1OC` [Compound E, (3-Bromophenyl)-(6,7-dimethoxyquinazolin-4-yl)-amine], the half-inhibitory concentration (IC50) stood at 5.7 µM in the assay with HCMV and 0.5 µM at RICK.

Take `O=c1c(O)c(-c2ccc(O)c(O)c2)oc2cc(O)cc(O)c12` [Compound F, 2-(3,4-Dihydroxyphenyl)-3,5,7-trihydroxychromen-4-one]: the IC50 in the assay on HCMV was 15 µM; at RIP, 5 µM.

`O=C1Nc2ccc(Cl)cc2/C1=C/c1ccc[nH]1` [Compound G, 5-Cloro-3-(1H-pyrrol-2-ylmethylene)-1,3-dihydroindol-2-one]: the half-maximal inhibitory concentration (IC50) in the assay with HCMV amounted to 15 µM; on RIP, 10 µM.

For the compound `O=C1NC(=O)c2ccccc2/C1=C/c1ccnc2ccccc12` [Compound H, 4-Quinolin-4-ylmethylene-4H-isoquinoline-1,3-dione], the IC50 is 12 µM with HCMV and 5 µM on RIP.
